According to the supplement of paper PMC10307832:

Compound: C1CCC(CC1)N(CCNCCC2=C3C(=C(C=C2)O)NC(=O)CO3)C(=O)CCNCCC4=CC(=C(C=C4)Cl)Cl [AZ505] + COc1cccc2cc(-c3nc([C@H]4CC[C@H](C(=O)O)CC4)n4ncnc(N)c34)[nH]c12 [OSI-027] (partner 0.5 µM)
Assay: relative viability (nuclei count vs DMSO), 5 days (fraction); higher = more cells survive
Settings: first compound 0.08 µM
Method in brief: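 A single step with final 0.05% Triton X-100, 1% formaldehyde and 1 ug/ml Hoechst fixed the cells and stained nuclei 5 days after treatment. Lung cancer cell lines in 1536-well plates had been treated by pin tool the day after seeding with one drug alone or a fixed anchor-drug dose plus five library-drug doses (not always all listed) in √10 steps, and nuclei were counted on 4× images. Relative viability is the ratio of nuclei in treated wells to nuclei in vehicle wells, taken as the median of duplicate plates.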

Row | Cell Line | relative viability
1 | NCI-H1650 | 0.7
2 | NCI-H1993 | 0.568
3 | SK-LU-1 | 0.168
4 | NCI-H838 | 0.402
5 | LCLC-103H | 0.447
6 | NCI-H520 | 0.26
7 | NCI-H2126 | 0.601
8 | EMC-BAC-2 | 0.358
9 | NCI-H2085 | 0.664
10 | HCC-366 | 0.817
11 | NCI-H1666 | 0.779
12 | NCI-H596 | 0.591
13 | LK-2 | 0.238
14 | NCI-H2087 | 0.403
15 | NCI-H1648 | 0.282
16 | SK-MES-1 | 0.501
17 | H3255 | 0.548
18 | COR-L23 | 0.494
19 | COR-L 105 | 0.626
20 | LOU-NH91 | 0.634
21 | ChaGo-K-1 | 0.53
22 | NCI-H2170 | 0.743
23 | NCI-H2405 | 0.436
24 | NCI-H1563 | 0.801

Same assay, conditions: first compound 0.253 µM

Row | Cell Line | relative viability
25 | NCI-H2342 | 0.712
26 | NCI-H1623 | 0.405
27 | NCI-H727 | 0.576
28 | NCI-H1650 | 0.677
29 | NCI-H1993 | 0.572
30 | SK-LU-1 | 0.184
31 | NCI-H838 | 0.438
32 | LCLC-103H | 0.472
33 | NCI-H520 | 0.285
34 | NCI-H2126 | 0.6
35 | EMC-BAC-2 | 0.38
36 | NCI-H2085 | 0.536
37 | HCC-366 | 0.635
38 | NCI-H1666 | 0.817
39 | NCI-H596 | 0.517
40 | LK-2 | 0.206
41 | NCI-H2087 | 0.368
42 | NCI-H1648 | 0.272
43 | SK-MES-1 | 0.53
44 | H3255 | 0.675
45 | COR-L23 | 0.65
46 | COR-L 105 | 0.572
47 | LOU-NH91 | 0.674
48 | ChaGo-K-1 | 0.448
49 | NCI-H2170 | 0.677
50 | NCI-H2405 | 0.511
51 | NCI-H1563 | 0.811

Same assay, conditions: first compound 0.8 µM

Row | Cell Line | relative viability
52 | NCI-H2342 | 0.765
53 | NCI-H1623 | 0.452
54 | NCI-H727 | 0.517
55 | NCI-H1650 | 0.672
56 | NCI-H1993 | 0.51
57 | SK-LU-1 | 0.201
58 | NCI-H838 | 0.402
59 | LCLC-103H | 0.447
60 | NCI-H520 | 0.288
61 | NCI-H2126 | 0.689
62 | EMC-BAC-2 | 0.392
63 | NCI-H2085 | 0.733
64 | HCC-366 | 0.948
65 | NCI-H1666 | 0.725
66 | NCI-H596 | 0.937
67 | LK-2 | 0.232
68 | NCI-H2087 | 0.595
69 | NCI-H1648 | 0.295
70 | SK-MES-1 | 0.534
71 | H3255 | 0.617
72 | COR-L23 | 0.588
73 | COR-L 105 | 0.615
74 | LOU-NH91 | 0.638
75 | ChaGo-K-1 | 0.593
76 | NCI-H2170 | 0.684
77 | NCI-H2405 | 0.528
78 | NCI-H1563 | 0.789

Same assay, conditions: first compound 2.53 µM

Row | Cell Line | relative viability
79 | NCI-H2342 | 0.587
80 | NCI-H1623 | 0.476
81 | NCI-H1650 | 0.554
82 | NCI-H1993 | 0.529
83 | SK-LU-1 | 0.197
84 | NCI-H838 | 0.34
85 | LCLC-103H | 0.496
86 | NCI-H520 | 0.306
87 | NCI-H2126 | 0.751
88 | EMC-BAC-2 | 0.385
89 | NCI-H2085 | 0.772
90 | HCC-366 | 0.764
91 | NCI-H1666 | 0.93
92 | NCI-H596 | 0.685
93 | LK-2 | 0.229
94 | NCI-H2087 | 0.518
95 | NCI-H1648 | 0.305
96 | SK-MES-1 | 0.577
97 | H3255 | 0.624
98 | COR-L23 | 0.486
99 | COR-L 105 | 0.62
100 | LOU-NH91 | 0.672
101 | ChaGo-K-1 | 0.699
102 | NCI-H2170 | 0.738
103 | NCI-H2405 | 0.574
104 | NCI-H1563 | 0.702

Same assay, conditions: first compound 8 µM

Row | Cell Line | relative viability
105 | NCI-H2342 | 0.671
106 | NCI-H1623 | 0.398
107 | NCI-H727 | 0.651
108 | NCI-H1650 | 0.806
109 | NCI-H1993 | 0.556
110 | SK-LU-1 | 0.255
111 | NCI-H838 | 0.398
112 | LCLC-103H | 0.476
113 | NCI-H520 | 0.322
114 | NCI-H2126 | 0.779
115 | EMC-BAC-2 | 0.372
116 | NCI-H2085 | 0.858
117 | HCC-366 | 0.924
118 | NCI-H1666 | 0.912
119 | NCI-H596 | 0.847
120 | LK-2 | 0.2
121 | NCI-H2087 | 0.728
122 | NCI-H1648 | 0.267
123 | SK-MES-1 | 0.583
124 | H3255 | 0.559
125 | COR-L23 | 0.656
126 | COR-L 105 | 0.752
127 | LOU-NH91 | 0.656
128 | ChaGo-K-1 | 0.537
129 | NCI-H2170 | 0.793
130 | NCI-H2405 | 0.501
131 | NCI-H1563 | 0.735
